We go through 20 compounds from PMC9851200, “Multiparameter phenotypic screening for endogenous TFEB and TFE3 translocation identifies novel chemical series modulating lysosome function” (Autophagy, 2022).

The subject of one series is endogenous TFEB. The series is described as follows: TFEB nuclear translocation, immunocytochemistry high-content imaging. The settings on record: PKIS2 primary screening. The format is cell-based.
The next series deals with endogenous TFE3. The experiment in a line: TFE3 nuclear translocation, immunocytochemistry high-content imaging. The settings on record: PKIS2 primary screening. Format: cell-based.
The test system of series [1] is SH-SY5Y cells. The note with it: PKIS2 primary screening; for DQ Intensity: DQ Red BSA intensity; for DQ Spot: DQ Red BSA spot count.
Text: The PKIS2 Library was supplied by The Structural Genomics Consortium at the University of North Carolina at Chapel Hill.
Series [2] deals with SH-SY5Y cells. The series is described as follows: AK (adenylate kinase) release ToxiLight cytotoxicity assay. Note: reference of the scale not given here. The note with it: PKIS2 primary screening.
In series [3] the test system is SH-SY5Y cells. The experiment in a line: Nuclear count from microscopy images (cellular growth and toxicity). Note: reference of the scale not given here. The note with it: PKIS2 primary screening.
Throughout, for DQ Intensity: reference of the scale not given here.
Throughout, for DQ Spot: reference of the scale not given here.

The compound `N#Cc1ccc(CCNc2nccc(-c3cccc(CN4CCNCC4)c3)n2)cc1` [GSK2137462] yielded a TFEB % in the series on endogenous TFEB of 6.80%. For the same compound, the TFE3 % with endogenous TFE3 came to 23.49%. Also, in the series on SH-SY5Y cells [1], the “DQ Intensity” value was determined as 97.76 and the “DQ Spot” value came out at 74.26. The AK with SH-SY5Y cells [2] is on record as 187.39. Further, the “Nuclear Count” value in the series on SH-SY5Y cells [3] came out at 74.38.

In the series on endogenous TFEB, `Nc1n[nH]c2cc(-c3ccccn3)ccc12` [GSK2189892] came in with a TFEB % of 8.33%. In the series with endogenous TFE3, the TFE3 % was determined as 11.18%. In the series on SH-SY5Y cells [1], the “DQ Intensity” value turned out to be 114.80 and the “DQ Spot” value was 107.54. The same compound yielded an AK in the series with SH-SY5Y cells [2] of 114.93. Besides, in the series with SH-SY5Y cells [3], the “Nuclear Count” value turned out to be 100.38.

On to `Nc1cccc(-c2ccc3c(N)n[nH]c3c2)n1` [GSK2192730], for which the TFEB % in the series with endogenous TFEB is recorded as 5.46%. In addition, the TFE3 % in the series on endogenous TFE3 amounted to 14.87%. In addition, in the series on SH-SY5Y cells [1], the “DQ Intensity” value is on record as 80.06 and the “DQ Spot” value is 98.33. Also, the AK with SH-SY5Y cells [2] was found to be 126.21. Moreover, in the series with SH-SY5Y cells [3], the “Nuclear Count” value was found to be 95.98.

In the series with endogenous TFEB, `Nc1cccc(-c2ccc3c(N)n[nH]c3c2)c1` [GSK2193613] showed a TFEB % of 4.96%. In the series with endogenous TFE3, this compound displayed a TFE3 % of 9.08%. Moreover, in the series with SH-SY5Y cells [1], the “DQ Intensity” value was 55.67 and the “DQ Spot” value is on record as 76.28. In the series with SH-SY5Y cells [2], this compound yielded an AK of 94.13. The “Nuclear Count” value with SH-SY5Y cells [3] is 112.12.

Consider `CNc1nccc(-c2ccc3c(N)n[nH]c3c2)n1` [GSK2206003], for which the TFEB % in the series on endogenous TFEB was determined as 3.51%. The TFE3 % in the series on endogenous TFE3 is recorded as 14.62%. Moreover, in the series on SH-SY5Y cells [1], the “DQ Intensity” value stood at 68.32 and the “DQ Spot” value is 96.17. In the series with SH-SY5Y cells [2], this compound came in with an AK of 89.67. Also, the “Nuclear Count” value in the series on SH-SY5Y cells [3] was determined as 71.44.

As for `CN(C)c1cc(-c2ccc3c(N)n[nH]c3c2)nc(N)n1` [GSK2219329], in the series on endogenous TFEB, the TFEB % is 4.04%. Further, the TFE3 % with endogenous TFE3 came to 13.03%. Also, in the series with SH-SY5Y cells [1], the “DQ Intensity” value turned out to be 87.81 and the “DQ Spot” value is on record as 98.17. This compound showed an AK in the series with SH-SY5Y cells [2] of 83.85. For the same compound, in the series with SH-SY5Y cells [3], the “Nuclear Count” value is recorded as 85.79.

As for `CC(C)Nc1cc(-c2ccc3c(N)n[nH]c3c2)nc(N)n1` [GSK2221681], the TFEB % in the series on endogenous TFEB is on record as 4.14%. The TFE3 % in the series on endogenous TFE3 is listed as 7.71%. Further, in the series on SH-SY5Y cells [1], the “DQ Intensity” value amounted to 78.82 and the “DQ Spot” value was determined as 81.03. In addition, in the series on SH-SY5Y cells [2], the AK is given as 98.58. Moreover, the “Nuclear Count” value with SH-SY5Y cells [3] stood at 122.37.

With `CNc1cc(-c2ccc3c(N)n[nH]c3c2)nc(N)n1` [GSK2224810], the TFEB % in the series on endogenous TFEB is on record as 4.15%. Further, the TFE3 % in the series on endogenous TFE3 came out at 7.03%. Moreover, in the series with SH-SY5Y cells [1], the “DQ Intensity” value came to 93.32 and the “DQ Spot” value turned out to be 95.12. The AK in the series on SH-SY5Y cells [2] stood at 132.47. Further, in the series with SH-SY5Y cells [3], the “Nuclear Count” value stood at 109.90.

For `Nc1nc(Nc2ccccc2)cc(-c2ccc3c(N)n[nH]c3c2)n1` [GSK2225749], the TFEB % with endogenous TFEB stood at 8.82%. For the same compound, in the series on endogenous TFE3, the TFE3 % is 13.67%. Moreover, in the series with SH-SY5Y cells [1], the “DQ Intensity” value is given as 84.54 and the “DQ Spot” value is 97.02. In the series with SH-SY5Y cells [2], this compound registered an AK of 135.05. In addition, the “Nuclear Count” value in the series on SH-SY5Y cells [3] is reported as 92.29.

In the series with endogenous TFEB, `Nc1nc(-c2ccc3c(N)n[nH]c3c2)cc(N2CCCC2)n1` [GSK2227430] had a TFEB % of 3.47%. For the same compound, in the series on endogenous TFE3, the TFE3 % is listed as 14.08%. Also, in the series with SH-SY5Y cells [1], the “DQ Intensity” value is 87.93 and the “DQ Spot” value stood at 104.79. In the series with SH-SY5Y cells [2], this compound gave an AK of 104.62. In addition, the “Nuclear Count” value in the series on SH-SY5Y cells [3] was determined as 85.02.

For the compound `Nc1nc(-c2ccc3c(N)n[nH]c3c2)cc(N2CCCCC2)n1` [GSK2228768], in the series with endogenous TFEB, the TFEB % came out at 3.41%. In the series with endogenous TFE3, this compound registered a TFE3 % of 12.52%. In addition, in the series with SH-SY5Y cells [1], the “DQ Intensity” value is 114.62 and the “DQ Spot” value turned out to be 125.41. The AK in the series with SH-SY5Y cells [2] worked out at 117.34. Further, in the series with SH-SY5Y cells [3], the “Nuclear Count” value is 85.37.

Compound `CC(C)c1cc(-c2ccc3c(N)n[nH]c3c2)nc(N)n1` [GSK2250882] returned a TFEB % in the series on endogenous TFEB of 3.86%. The TFE3 % in the series on endogenous TFE3 was found to be 20.48%. In addition, in the series with SH-SY5Y cells [1], the “DQ Intensity” value came out at 90.98 and the “DQ Spot” value was determined as 110.65. Besides, the AK with SH-SY5Y cells [2] was 82.41. In addition, the “Nuclear Count” value with SH-SY5Y cells [3] came to 92.23.

Consider `C[C@@H]1CCCCN1c1cc(-c2ccc3c(N)n[nH]c3c2)nc(N)n1` [GSK2258759], for which the TFEB % with endogenous TFEB amounted to 3.40%. This compound also had a TFE3 % in the series on endogenous TFE3 of 12.52%. Moreover, in the series with SH-SY5Y cells [1], the “DQ Intensity” value is listed as 61.15 and the “DQ Spot” value was 84.49. The compound also registered an AK in the series on SH-SY5Y cells [2] of 88.63. The “Nuclear Count” value with SH-SY5Y cells [3] amounted to 88.84.

`C[C@H]1CC[C@@H](C(=O)Nc2ccccc2)CN1c1cc(-c2ccc3c(N)n[nH]c3c2)nc(N)n1` [GSK2283293]: the TFEB % in the series with endogenous TFEB stood at 5.47%. Further, the TFE3 % in the series with endogenous TFE3 was 11.00%. Also, in the series on SH-SY5Y cells [1], the “DQ Intensity” value stood at 68.06 and the “DQ Spot” value was 92.27. This compound gave an AK with SH-SY5Y cells [2] of 101.77. Further, the “Nuclear Count” value with SH-SY5Y cells [3] was 95.91.

As for `C[C@@H]1CC[C@@H](C(=O)Nc2ccccc2)CN1c1cc(-c2ccc3c(N)n[nH]c3c2)nc(N)n1` [GSK2286062], the TFEB % with endogenous TFEB was 4.27%. In the series with endogenous TFE3, the TFE3 % is given as 8.18%. For the same compound, in the series on SH-SY5Y cells [1], the “DQ Intensity” value came out at 74.11 and the “DQ Spot” value is listed as 77.23. Moreover, in the series on SH-SY5Y cells [2], the AK is on record as 87.26. The “Nuclear Count” value in the series on SH-SY5Y cells [3] is given as 138.15.

Regarding `CC(C)(C)OC(=O)NC1CCCN(c2cc(-c3ccc4c(N)n[nH]c4c3)nc(N)n2)C1` (stereo not drawn) [GSK2286096], in the series on endogenous TFEB, the TFEB % came to 2.89%. Besides, the TFE3 % in the series on endogenous TFE3 was 7.82%. For the same compound, in the series on SH-SY5Y cells [1], the “DQ Intensity” value came to 137.35 and the “DQ Spot” value was determined as 108.17. Also, in the series with SH-SY5Y cells [2], the AK is listed as 116.95. Moreover, the “Nuclear Count” value in the series with SH-SY5Y cells [3] worked out at 128.62.

Compound `Nc1nc(-c2ccc3c(N)n[nH]c3c2)cc(N2CCCC(NC(=O)c3ccccc3)C2)n1` (stereo not drawn) [GSK2286775] returned a TFEB % in the series on endogenous TFEB of 4.25%. Further, the TFE3 % in the series on endogenous TFE3 is recorded as 13.75%. Also, in the series with SH-SY5Y cells [1], the “DQ Intensity” value is recorded as 67.10 and the “DQ Spot” value was 83.48. The AK with SH-SY5Y cells [2] stood at 119.49. In addition, in the series with SH-SY5Y cells [3], the “Nuclear Count” value was found to be 104.24.

`Nc1nc(-c2ccc3c(N)n[nH]c3c2)cc(N2CCC[C@@H](C(=O)Nc3ccccc3)C2)n1` [GSK2288359] came in with a TFEB % with endogenous TFEB of 6.39%. This compound returned a TFE3 % with endogenous TFE3 of 14.08%. Besides, in the series with SH-SY5Y cells [1], the “DQ Intensity” value stood at 83.69 and the “DQ Spot” value worked out at 103.68. The compound also had an AK in the series on SH-SY5Y cells [2] of 96.03. For the same compound, the “Nuclear Count” value in the series on SH-SY5Y cells [3] is 88.88.

With `C[C@@H]1CC[C@H](C(=O)NC2CCCCC2)CN1c1cc(-c2ccc3c(N)n[nH]c3c2)nc(N)n1` [GSK2291363], in the series with endogenous TFEB, the TFEB % is 3.73%. Further, the TFE3 % in the series with endogenous TFE3 stood at 16.02%. Further, in the series on SH-SY5Y cells [1], the “DQ Intensity” value was 117.06 and the “DQ Spot” value came to 112.54. This compound also gave an AK in the series with SH-SY5Y cells [2] of 87.12. Moreover, the “Nuclear Count” value in the series with SH-SY5Y cells [3] was 117.58.

In the case of `CNc1nc(-c2ccc3c(N)n[nH]c3c2)cc(N2C[C@@H](C(=O)Nc3ccccc3)CC[C@H]2C)n1` [GSK2298859], the TFEB % with endogenous TFEB is 6.90%. Further, the TFE3 % with endogenous TFE3 was found to be 12.86%. Besides, in the series with SH-SY5Y cells [1], the “DQ Intensity” value amounted to 117.75 and the “DQ Spot” value worked out at 109.70. The same compound displayed an AK in the series on SH-SY5Y cells [2] of 105.92. In addition, the “Nuclear Count” value in the series with SH-SY5Y cells [3] is listed as 105.37.
